Counter-ions that a name gives are not always drawn. Like-named read-outs stand apart in the source and are kept apart here.
Columns and labels:
[1] = target: T1, rat ATP citrate lyase (Rattus norvegicus, UniProt P16638); experiment: Assay of ATP Citrate lyase in the presence of inhibitors (rat enzyme); type: biochemical; details: 100 μM citrate, pH 8.0, 25° C.
T1 construct: prior to removal of the livers; ATP Citrate lyase was prepared according to the method of Wraight et al; from tissue; host or cells: liver of male Wistar rats (fasted, then fed a high carbohydrate diet)
T1 sequence (P16638 1-1100): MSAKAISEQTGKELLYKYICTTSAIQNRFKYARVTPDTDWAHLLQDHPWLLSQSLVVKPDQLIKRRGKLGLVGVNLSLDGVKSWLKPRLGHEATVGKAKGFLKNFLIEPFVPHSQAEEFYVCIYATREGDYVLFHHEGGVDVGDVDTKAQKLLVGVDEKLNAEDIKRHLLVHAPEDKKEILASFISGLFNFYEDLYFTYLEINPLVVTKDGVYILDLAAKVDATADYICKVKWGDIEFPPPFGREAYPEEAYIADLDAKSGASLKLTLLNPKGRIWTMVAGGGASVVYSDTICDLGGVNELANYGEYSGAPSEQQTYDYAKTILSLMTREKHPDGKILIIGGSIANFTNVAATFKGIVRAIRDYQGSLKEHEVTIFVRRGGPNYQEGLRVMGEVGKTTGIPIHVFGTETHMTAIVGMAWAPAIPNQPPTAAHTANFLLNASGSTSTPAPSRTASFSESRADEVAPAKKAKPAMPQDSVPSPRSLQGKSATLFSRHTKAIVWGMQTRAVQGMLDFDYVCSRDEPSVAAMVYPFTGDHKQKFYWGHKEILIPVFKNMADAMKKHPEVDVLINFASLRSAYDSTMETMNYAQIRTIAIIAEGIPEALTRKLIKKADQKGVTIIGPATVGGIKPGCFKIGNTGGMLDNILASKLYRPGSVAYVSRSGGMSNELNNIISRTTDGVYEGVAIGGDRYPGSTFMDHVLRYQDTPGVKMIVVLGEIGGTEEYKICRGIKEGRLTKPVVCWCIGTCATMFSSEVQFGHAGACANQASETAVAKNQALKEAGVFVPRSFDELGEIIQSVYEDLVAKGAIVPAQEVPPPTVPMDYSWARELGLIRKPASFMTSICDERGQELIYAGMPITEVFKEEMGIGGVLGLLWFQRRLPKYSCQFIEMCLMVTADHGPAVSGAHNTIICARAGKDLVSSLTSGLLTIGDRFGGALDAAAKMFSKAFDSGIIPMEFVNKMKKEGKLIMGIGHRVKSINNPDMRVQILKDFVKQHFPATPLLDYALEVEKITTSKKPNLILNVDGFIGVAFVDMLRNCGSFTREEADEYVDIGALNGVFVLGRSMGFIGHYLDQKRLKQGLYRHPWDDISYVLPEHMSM
Protocol: 1. RAT ATP CITRATE LYASE (ACL) ASSAY
Purification of ATP Citrate lyase-human and rat enzymes
Male Wistar rats were fasted for 24 h, then fed on a high carbohydrate diet for 72 h prior to removal of the livers. ATP Citrate lyase was prepared according to the method of Wraight et al (Anal. Biochem., 1985, 144, 604-609) with modifications for large scale purification according to Wells (Eur. J. Biochem., 1991, 199, 163-168). Protein obtained by this method was pure as judged by SDS-PAGE.
Assay of ATP Citrate lyase in the presence of inhibitors
(§1) ATP Citrate lyase activity was assayed at 25° C. by reducing the oxaloacetate produced with malate dehydrogenase and NADH while monitoring at 340 nm using a Beckman DU50 spectrophotometer (according to the method of Linnet al (J. Biol. Chem., 1979, 254, 1691-1698)). Briefly, ATP citrate lyase (human or rat) was added to a 1 ml cuvette containing 50 mM Tris/HCl, pH=8.0, 0.2 mM NADH, 10 mM MgCl2, 10 mM KCl, 5 mM ATP, 200 μM coenzyme A, 10 mM dithiothreitol and malate dehydrogenase. An aqueous solution of inhibitor was added (for inhibitors which were insoluble in water, a stock solution was prepared in DMSO. However the final DMSO concentration in the cuvette was not allowed to exceed 1%.). Finally, tripotassium citrate was added to 100 μM final. This is Km for citrate (Wells et al (Eur. J. Biochem., 1992, 204, 249-255) and Houston et al (Biochim. Biophys. Acta, 1985, 844, 233-239)). Data analysis was performed using the curve fitting package Enzfitter (Elsevier Biosoft). For competitive inhibitors data was fitted to the equation
where v is the observed rate and I is the concentration of inhibitor added. Thus the dissociation constant Ki for the inhibitor could be found.

[2] = target: T2, human ATP citrate lyase (Homo sapiens, UniProt P53396); experiment: Assay of ATP Citrate lyase in the presence of inhibitors (human enzyme); type: biochemical; details: 100 μM citrate, pH 8.0, 25° C.
T2 construct: made in house
T2 sequence (P53396 1-1101): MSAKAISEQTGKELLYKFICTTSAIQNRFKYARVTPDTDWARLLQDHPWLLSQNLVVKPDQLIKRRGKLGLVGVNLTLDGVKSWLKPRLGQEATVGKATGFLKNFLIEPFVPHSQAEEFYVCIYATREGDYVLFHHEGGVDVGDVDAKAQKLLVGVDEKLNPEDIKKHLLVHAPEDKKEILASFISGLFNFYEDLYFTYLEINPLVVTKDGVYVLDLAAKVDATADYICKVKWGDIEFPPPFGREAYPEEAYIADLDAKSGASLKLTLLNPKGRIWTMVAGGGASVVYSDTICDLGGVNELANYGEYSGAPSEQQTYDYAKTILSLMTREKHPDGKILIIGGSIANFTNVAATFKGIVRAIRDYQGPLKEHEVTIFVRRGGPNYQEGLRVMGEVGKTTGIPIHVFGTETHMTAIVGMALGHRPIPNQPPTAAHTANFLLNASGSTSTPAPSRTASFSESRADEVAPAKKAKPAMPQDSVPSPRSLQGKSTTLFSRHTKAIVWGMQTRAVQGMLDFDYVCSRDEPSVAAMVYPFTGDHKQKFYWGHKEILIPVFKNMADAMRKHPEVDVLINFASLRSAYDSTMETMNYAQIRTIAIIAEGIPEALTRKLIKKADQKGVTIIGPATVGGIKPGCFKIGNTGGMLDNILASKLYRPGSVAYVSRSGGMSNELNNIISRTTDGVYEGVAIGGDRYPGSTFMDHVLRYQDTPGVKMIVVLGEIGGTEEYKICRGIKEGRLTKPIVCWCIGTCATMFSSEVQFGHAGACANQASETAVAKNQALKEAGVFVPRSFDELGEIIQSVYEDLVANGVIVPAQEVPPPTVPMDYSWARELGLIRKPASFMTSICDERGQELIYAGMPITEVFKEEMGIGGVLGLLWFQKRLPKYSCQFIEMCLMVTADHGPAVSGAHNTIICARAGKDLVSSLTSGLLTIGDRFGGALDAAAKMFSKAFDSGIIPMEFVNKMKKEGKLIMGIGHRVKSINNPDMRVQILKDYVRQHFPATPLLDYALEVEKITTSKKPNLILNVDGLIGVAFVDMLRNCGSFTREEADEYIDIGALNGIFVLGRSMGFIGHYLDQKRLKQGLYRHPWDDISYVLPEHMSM
Protocol: as §1, with “Purification of ATP Citrate lyase-human and rat enzymes (ii) human enzyme Human ATP citrate lyase was prepared as described in European Journal of Biochemistry, 1992, 204, 491-99, with modifications for large scale purification according to Wells as referred to above. Protein obtained by this method was pure as judged by SDS-PAGE. Assay of ATP Citrate lyase in the presence of inhibitors ATP Citrate” for “ATP Citrate”, “method of […] al (J.” for “method of Linnet al (J.”, “(Elsevier Biosoft). […]” for “(Elsevier Biosoft). For competitive inhibitors data was fitted to the equation”

[3] = tested on: HepG2 cells; experiment: Effect of compounds on cholesterol (CL) and fatty acid (FA) synthesis in HepG2 cells; type: cell-based; details: Homo sapiens; for activity at 30 µM: Conc. 30 μM; for activity at 1000 µM: Conc. 1000 μM; for activity at 3 µM: Conc. 3 μM; for activity at 10 µM: Conc. 10 μM
Protocol: 2. Measurement of effect of compounds on cholesterol (CL) and fatty acid (FA) synthesis in HepG2 Cells HepG2 cells were cultured in 24-well cell culture plates in DMEM (Dulbecco's Modified Eagle's Medium) containing Hepes (20 mM), bicarbonate (10 mM), glutamine (2 mM) and foetal calf serum (10% w/v). Once the cells had grown to between 80% and 90% confluence, the medium was replaced by DMEM without the addition of foetal calf serum and the cells incubated overnight. The rates of cholesterol and fatty acid synthesis were then measured by the addition of ^3 H2 O, to a specific radioactivity of 71 mCi/mmol, for the final 90 min of the incubation. Vehicle or test compound were added to the medium either 1.5 or 14.5 hr prior to the addition of ^3 H2 O to give the final desired concentration. Incubations were terminated and the rates of cholesterol and fatty acid synthesis determined from the amounts of ^3 H incorporated into cellular cholesterol and fatty acids as described previously (Berkhout et al.; Biochem J., 1990, 272, 181).

[4] = tested on: Beagle dog plasma cholesterol and triglyceride levels; experiment: Measurement of hyperlipidaemic activity in dogs: plasma cholesterol and triglyceride levels; type: in vivo; details: male Beagle dogs; 25 mg/kg/day for 2 weeks
Protocol: (§2) 3. Measurement of hyperlipidaemic activity in rats and dogs
25 (b) Dog The compound of example 2 was administered to male Beagle dogs at a level of 25 mg/kg/day for 2 weeks.

[5] = tested on: Sprague Dawley rat plasma cholesterol and triglyceride levels; experiment: Measurement of hyperlipidaemic activity in rats: plasma cholesterol and triglyceride levels; type: in vivo; details: in diet at 0.125% (w:w) for 7 days
Protocol: as §2
The compound of example 2 was administered to Spmgue Dawley rats in their diet at a concentration of 0.125% (w:w) for 7 days.

O=C(O)C[C@](O)(C[C@@H](O)CCCCCCc1ccc(Cl)cc1Cl)C(=O)O (single isomer, unassigned) [Example 18, (+) (3R*,5S*) 3-Carboxy-11-(2,4-dichlorophenyl)-3,5-dihydroxyundecanoic acid, disodium salt]
Ki [1]: 700 nM | Ki [2]: 760 nM

O=C(O)C[C@]1(O)C[C@H](CCCCCCc2ccc(Cl)cc2Cl)OC1=O (relative stereo) [Example 2, ±(3R*, 5S*) 3-Carboxymethyl-5-[6-(2,4-dichlorophenyl)hexyl]3-hydroxytetrahydrofuran-2-one]
activity against ATP citrate lyase (rat) [1]: inactive | activity at 30 µM ([3]; read-out: CL synthesis): 8 ± 3% | activity at 30 µM ([3]; read-out: FA synthesis): 32 ± 3% | reduction of plasma cholesterol levels [4]: 20-25% | reduction of plasma triglyceride levels [4]: 20-25% | reduction of plasma cholesterol levels [5]: 30% | reduction of plasma triglyceride levels [5]: 64%

O=C(O)C[C@](O)(C[C@@H](O)CCCCCCc1ccc(Cl)cc1Cl)C(=O)O (relative stereo) [Example 1, ±(3R*, 5S*) 3-Carboxy-11-(2,4-dichlorophenyl)-3,5-dihydroxyundecanoic acid, disodium salt]
Ki [1]: 800 nM | activity at 1000 µM ([3]; read-out: CL synthesis): 80 ± 6% | activity at 1000 µM ([3]; read-out: FA synthesis): 123 ± 3%

O=C(O)[C@H](O)[C@@]1(O)C[C@@H](CCCCCCc2ccc(Cl)cc2Cl)OC1=O (relative stereo) [Example 11, ±(1'R*,3S*,5R*) 3-[Carboxy(hydroxy)methyl]-5-[6-(2,4-dichlorophenyl)hexyl]-3-hydroxytetrahydrofuran-2-one]
activity at 3 µM ([3]; read-out: CL synthesis): 69 ± 13% | activity at 3 µM ([3]; read-out: FA synthesis): 74 ± 11% | activity at 10 µM ([3]; read-out: CL synthesis): 86 ± 29% | activity at 10 µM ([3]; read-out: FA synthesis): 76 ± 13%

O=C(O)C[C@](O)(C[C@@H](O)CCCCCCc1ccc(Cl)cc1Cl)C(=O)O (single isomer, unassigned) [Example 20, (-) (3R*,5S*) 3-Carboxy-11-(2 4-dichlorophenyl)-3 5-dihydroxyundecanoic acid, disodium salt]
Ki [1]: 700 nM | Ki [2]: 690 nM
